Assay results as given in patent publication US9265253B2, “Use of macrocyclic picolinamides as fungicides” (DOW AGROSCIENCES LLC, priority 2013, dated 2016).
Like-named read-outs stand apart in the source and are kept apart here.

Assays:
[1] = test system: Mycosphaerella graminicola; Anamorph: Septoria tritici; assay: Leaf Blotch of Wheat (SEPTTR) disease control; assay type: in vivo; settings: Zymoseptoria tritici; for pest or weed control at 100 ppm: rate 100 ppm
Outline: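 Percent disease control is derived from Septoria tritici leaf blotch severity (0 to 100 percent) on treated versus untreated wheat seedlings. Plants get fungicide spray to run-off, with inoculation either preceding or following application, then humid incubation at 20° C.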

[2] = test system: Puccinia triticina; Synonym: Puccinia recondite f. Sp. Tritici; assay: Wheat Brown Rust (PUCCRT) disease control; assay type: in vivo; settings: Puccinia triticina, topical; for pest or weed control at 100 ppm: rate 100 ppm
Outline: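 Brown rust on first-leaf Yuma wheat: spore inoculation before or after spray application (acetone/Triton X-100 solution, or EC with Trycol in track spray), overnight 100% RH at 22 °C, disease developed at 24 °C. Severity scored 0–100% and converted to percent control against untreated.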

[3] = 24 h, 1 Day Protectant, read-out: SEPTTR 1 DP disease control
[4] = 24 h, 1 Day Protectant, rate 121.5 g/H, read-out: SEPTTR 1 DP disease control
[5] = 72 h, 3 Day Curative, read-out: SEPTTR 3 DC disease control
[6] = 72 h, 3 Day Curative, rate 121.5 g/H, read-out: SEPTTR 3 DC disease control
[7] = 24 h, 1 Day Protectant, read-out: PUCCRT 1 DP disease control
[8] = 24 h, 1 Day Protectant, rate 121.5 g/H, read-out: PUCCRT 1 DP disease control
[9] = 72 h, 3 Day Curative, read-out: PUCCRT 3 DC disease control
[10] = 72 h, 3 Day Curative, rate 121.5 g/H, read-out: PUCCRT 3 DC disease control

SMILES	pest or weed control at 100 ppm [1, 3] [%]	pest or weed control at 121.5 g/ha [1, 4] [%]	pest or weed control at 100 ppm [1, 5] [%]	pest or weed control at 121.5 g/ha [1, 6] [%]	pest or weed control at 100 ppm [2, 7] [%]	pest or weed control at 121.5 g/ha [2, 8] [%]	pest or weed control at 100 ppm [2, 9] [%]	pest or weed control at 121.5 g/ha [2, 10] [%]	pest or weed control at 121.5 g/ha ([1]; 24 h, Wheat Leaf Blotch, 1 Day Protectant, rate 121.5 g/H (low volume application), read-out: Disease control SEPTTR 1 DP) [%]	pest or weed control at 121.5 g/ha ([1]; 72 h, Wheat Leaf Blotch, 3 Day Curative, rate 121.5 g/H (low volume application), read-out: Disease control SEPTTR 3 DC) [%]	pest or weed control at 121.5 g/ha ([2]; 24 h, Wheat Brown Rust, 1 Day Protectant, rate 121.5 g/H (low volume application), read-out: Disease control PUCCRT 1 DP) [%]	pest or weed control at 121.5 g/ha ([2]; 72 h, Wheat Brown Rust, 3 Day Curative, rate 121.5 g/H (low volume application), read-out: Disease control PUCCRT 3 DC) [%]
CC[C@H]1CCC[C@H](NC(=O)c2nccc(OC)c2OCOC(C)=O)C(=O)O[C@@H](C)[C@@H]1Oc1ccccc1 [Compound F136]	80 to 100	80 to 100	80 to 100	80 to 100	80 to 100	80 to 100	80 to 100	80 to 100	–	–	–	–
CC[C@H]1CCC[C@H](NC(=O)c2nccc(OC)c2O)C(=O)O[C@@H](C)[C@@H]1Oc1ccccc1 [Compound F51]	80 to 100	–	0 to 80	–	80 to 100	–	0 to 80	–	–	–	–	–
COCCO[C@@H]1[C@@H](Cc2ccccc2)CCC[C@H](NC(=O)c2nccc(OC)c2OCOC(C)=O)C(=O)O[C@H]1C [Compound F112]	–	80 to 100	–	80 to 100	–	80 to 100	–	80 to 100	–	–	–	–
COc1ccnc(C(=O)N[C@H]2CCC[C@H](Cc3ccc(F)cc3)[C@@H](OCC(F)F)[C@H](C)OC2=O)c1O [Compound F15]	80 to 100	–	80 to 100	–	80 to 100	–	80 to 100	–	–	–	–	–
CC[C@H]1CCC[C@H](NC(=O)c2nccc(OC)c2OCOC(C)=O)C(=O)O[C@@H](C)[C@@H]1OCC(C)C [Compound F133]	80 to 100	80 to 100	80 to 100	80 to 100	80 to 100	80 to 100	80 to 100	80 to 100	–	–	–	–
CCOCC(=O)OCOc1c(OC)ccnc1C(=O)N[C@H]1CCC[C@H](CCC(C)C)[C@@H](OCC(C)C)[C@H](C)OC1=O [Compound F159]	80 to 100	80 to 100	80 to 100	80 to 100	80 to 100	80 to 100	80 to 100	0 to 80	–	–	–	–
COc1ccnc(C(=O)N[C@H]2CCC[C@H](Cc3ccc(C)cc3)[C@@H](OCCCC(F)(F)F)[C@H](C)OC2=O)c1OCOC(C)=O [Compound F139]	80 to 100	80 to 100	80 to 100	80 to 100	80 to 100	80 to 100	80 to 100	0 to 80	–	–	–	–
CCOCC(=O)OCOc1c(OC)ccnc1C(=O)N[C@H]1CCC[C@H](CCC(C)C)[C@@H](OCCCC(F)(F)F)[C@H](C)OC1=O [Compound F162]	80 to 100	80 to 100	80 to 100	80 to 100	80 to 100	80 to 100	80 to 100	0 to 80	–	–	–	–
COc1ccnc(C(=O)N[C@H]2CCC[C@H](CCC(C)C)[C@@H](Oc3ccccc3)[C@H](C)OC2=O)c1OCOC(C)=O [Compound F89]	80 to 100	80 to 100	80 to 100	80 to 100	80 to 100	80 to 100	80 to 100	0 to 80	–	–	–	–
CCO[C@@H]1[C@@H](Cc2ccccc2)CCC[C@H](NC(=O)c2nccc(OC)c2OC(=O)CCOC)C(=O)O[C@H]1C [Compound F197]	–	–	–	–	–	–	–	–	80 to 100	80 to 100	80 to 100	80 to 100
COc1ccnc(C(=O)N[C@H]2CCC[C@H](Cc3ccc(F)cc3)[C@@H](OC(=O)C(C)C)[C@H](C)OC2=O)c1O [Compound F17]	80 to 100	–	80 to 100	–	80 to 100	–	0 to 80	–	–	–	–	–
C=CCO[C@@H]1[C@@H](Cc2ccc(F)cc2)CCC[C@H](NC(=O)c2nccc(OC)c2OCOC(C)=O)C(=O)O[C@H]1C [Compound F100]	80 to 100	80 to 100	80 to 100	80 to 100	80 to 100	80 to 100	80 to 100	0 to 80	–	–	–	–
COc1ccnc(C(=O)N[C@H]2CCC[C@H](Cc3ccc(F)cc3)[C@@H](Oc3ccccc3)[C@H](C)OC2=O)c1O [Compound F11]	80 to 100	–	80 to 100	–	80 to 100	–	0 to 80	–	–	–	–	–
CCOCC(=O)Oc1c(OC)ccnc1C(=O)N[C@H]1CCC[C@H](CCOC)[C@@H](OCC(C)C)[C@H](C)OC1=O [Compound F188]	80 to 100	80 to 100	80 to 100	80 to 100	80 to 100	80 to 100	80 to 100	80 to 100	–	–	–	–
COc1ccnc(C(=O)N[C@H]2CCC[C@H](CC3CCCCC3)[C@@H](OCC3CC3)[C@H](C)OC2=O)c1O [Compound F9, N-((3S,7R,8R,9S)-7-(cyclohexylmethyl)-8-(cyclopropylmethoxy)-9-methyl-2-oxooxonan-3-yl)-3-hydroxy-4-methoxypicolinamide]	80 to 100	–	80 to 100	–	80 to 100	–	80 to 100	–	–	–	–	–
CCCO[C@@H]1[C@@H](Cc2ccc(OC)cc2)CCC[C@H](NC(=O)c2nccc(OC)c2O)C(=O)O[C@H]1C [Compound F33]	80 to 100	–	80 to 100	–	80 to 100	–	80 to 100	–	–	–	–	–
COc1ccnc(C(=O)N[C@H]2CCC[C@H](Cc3ccc(F)cc3)[C@@H](OC(=O)C3CCCC3)[C@H](C)OC2=O)c1OCOC(C)=O [Compound F104]	80 to 100	80 to 100	80 to 100	80 to 100	80 to 100	80 to 100	80 to 100	0 to 80	–	–	–	–
COc1ccnc(C(=O)N[C@H]2CCC[C@H](CCC(C)C)[C@@H](OCCCC(F)(F)F)[C@H](C)OC2=O)c1OCOC(=O)C(C)C [Compound F150]	80 to 100	80 to 100	80 to 100	80 to 100	80 to 100	80 to 100	80 to 100	0 to 80	–	–	–	–
COc1ccnc(C(=O)N[C@H]2CCC[C@H](CCC(C)C)[C@@H](OC3CCCC3)[C@H](C)OC2=O)c1OCOC(C)=O [Compound F94]	80 to 100	–	80 to 100	–	80 to 100	–	80 to 100	–	–	–	–	–
